Holding throughout (test): In-house protein microarrays (with or without 5 mM DTT), protein named per line
Format in all cases: binding

For assay [1], the target named is T1, SH2 and PTB domains (Homo sapiens, UniProt P42680).
T1 construct: thioredoxin; made in house; host or cells: BL21(DE3)pLysS E. coli
T1 sequence (P42680 1-631): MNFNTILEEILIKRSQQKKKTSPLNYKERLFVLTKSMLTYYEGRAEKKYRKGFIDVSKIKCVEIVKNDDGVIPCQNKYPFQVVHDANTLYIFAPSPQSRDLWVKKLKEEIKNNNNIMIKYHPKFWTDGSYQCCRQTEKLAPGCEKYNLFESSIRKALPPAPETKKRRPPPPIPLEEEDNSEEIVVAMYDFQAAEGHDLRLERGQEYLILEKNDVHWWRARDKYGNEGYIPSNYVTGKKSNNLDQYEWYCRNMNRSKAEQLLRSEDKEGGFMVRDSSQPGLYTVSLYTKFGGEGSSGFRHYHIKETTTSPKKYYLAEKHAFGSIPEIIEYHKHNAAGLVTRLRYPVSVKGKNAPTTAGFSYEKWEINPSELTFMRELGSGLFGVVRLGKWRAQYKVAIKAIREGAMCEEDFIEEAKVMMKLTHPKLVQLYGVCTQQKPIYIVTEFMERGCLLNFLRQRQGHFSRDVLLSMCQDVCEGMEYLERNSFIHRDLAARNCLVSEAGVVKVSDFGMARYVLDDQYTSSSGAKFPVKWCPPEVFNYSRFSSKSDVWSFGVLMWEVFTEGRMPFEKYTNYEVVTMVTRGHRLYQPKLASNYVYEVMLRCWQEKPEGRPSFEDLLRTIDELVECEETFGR
The settings on record: protein TEC. The gist of the method:
(§1)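 KD values come from rhodamine fluorescence of duplicate spots after subtraction of a thioredoxin control. Domains were printed at ~40 µM on aldehyde slides, blocked 1 h at room temperature in pH 7.8 HEPES/KCl buffer with 5 mM DTT and 1% BSA, then peptide-probed.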

In assay [2] the target is T2, SH2 and PTB domains (Homo sapiens, UniProt P00519).
T2 construct: thioredoxin; made in house; host or cells: BL21(DE3)pLysS E. coli
The settings on record: protein ABL1. Put shortly:
as §1

Assay [3] has as its target T3, SH2 and PTB domains (Homo sapiens, UniProt P27986).
T3 construct: thioredoxin; made in house; host or cells: BL21(DE3)pLysS E. coli
The gist of the method: as §1

The target in assay [4] is T4, SH2 and PTB domains (Homo sapiens, UniProt P29350).
T4 construct: thioredoxin; made in house; host or cells: BL21(DE3)pLysS E. coli
The gist of the method:
as §1

Assay [5] has as its target T5, SH2 and PTB domains (Homo sapiens, UniProt P46109).
T5 construct: thioredoxin; made in house; host or cells: BL21(DE3)pLysS E. coli
The settings on record: protein CRKL. Put shortly: as §1

Assay [6] concerns the target T6, SH2 and PTB domains (Homo sapiens, UniProt P51813).
T6 construct: thioredoxin; made in house; host or cells: BL21(DE3)pLysS E. coli
T6 sequence (P51813 1-675): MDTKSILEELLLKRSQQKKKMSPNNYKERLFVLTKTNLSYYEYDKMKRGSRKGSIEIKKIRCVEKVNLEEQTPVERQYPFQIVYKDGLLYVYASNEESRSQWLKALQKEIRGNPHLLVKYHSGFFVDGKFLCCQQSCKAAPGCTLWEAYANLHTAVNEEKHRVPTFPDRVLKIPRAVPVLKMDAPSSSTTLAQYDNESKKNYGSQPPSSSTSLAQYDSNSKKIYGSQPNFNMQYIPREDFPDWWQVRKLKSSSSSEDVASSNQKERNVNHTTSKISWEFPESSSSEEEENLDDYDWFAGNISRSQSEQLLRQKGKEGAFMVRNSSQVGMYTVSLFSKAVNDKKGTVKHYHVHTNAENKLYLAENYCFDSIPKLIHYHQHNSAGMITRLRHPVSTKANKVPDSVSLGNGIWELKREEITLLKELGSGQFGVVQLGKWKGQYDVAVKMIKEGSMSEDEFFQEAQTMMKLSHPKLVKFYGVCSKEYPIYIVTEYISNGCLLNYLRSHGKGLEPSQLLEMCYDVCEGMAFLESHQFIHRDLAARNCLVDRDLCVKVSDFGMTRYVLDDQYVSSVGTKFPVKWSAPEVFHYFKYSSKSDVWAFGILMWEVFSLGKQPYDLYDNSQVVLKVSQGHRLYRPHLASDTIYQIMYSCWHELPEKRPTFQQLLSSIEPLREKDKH
The settings on record: protein BMX. The gist of the method:
as §1

Assay [7] addresses T7, SH2 and PTB domains (Homo sapiens, UniProt P42684).
T7 construct: thioredoxin; made in house; host or cells: BL21(DE3)pLysS E. coli
The following applies: protein ABL2. The gist of the method:
as §1

Assay [8] has as its target T8, SH2 and PTB domains (Homo sapiens, UniProt Q7M4L6).
T8 construct: thioredoxin; made in house; host or cells: BL21(DE3)pLysS E. coli
The following applies: protein SHF. Put shortly: as §1

Assay [9] concerns the target T9, SH2 and PTB domains (Homo sapiens, UniProt Q96JZ2).
T9 construct: thioredoxin; made in house; host or cells: BL21(DE3)pLysS E. coli
The following applies: protein HSH2D; PM assay replicate # 39307; array fabrication # 39286. The gist of the method:
as §1

[10] abbreviates: PM assay replicate # 39336, array fabrication # 39329.
Setting [11] is: PM assay replicate # 39337, array fabrication # 39329.
[12] abbreviates: PM assay replicate # 39307, array fabrication # 39286.

A word on the Kd: it is the equilibrium constant for the complex coming apart. High values mean weaker binding, low ones tighter binding.

The structures appear in SMILES notation. Residues, ends and D or L forms follow the SMILES beside them.

T7 sequence (P42684 whole entry, the tested form may be a part): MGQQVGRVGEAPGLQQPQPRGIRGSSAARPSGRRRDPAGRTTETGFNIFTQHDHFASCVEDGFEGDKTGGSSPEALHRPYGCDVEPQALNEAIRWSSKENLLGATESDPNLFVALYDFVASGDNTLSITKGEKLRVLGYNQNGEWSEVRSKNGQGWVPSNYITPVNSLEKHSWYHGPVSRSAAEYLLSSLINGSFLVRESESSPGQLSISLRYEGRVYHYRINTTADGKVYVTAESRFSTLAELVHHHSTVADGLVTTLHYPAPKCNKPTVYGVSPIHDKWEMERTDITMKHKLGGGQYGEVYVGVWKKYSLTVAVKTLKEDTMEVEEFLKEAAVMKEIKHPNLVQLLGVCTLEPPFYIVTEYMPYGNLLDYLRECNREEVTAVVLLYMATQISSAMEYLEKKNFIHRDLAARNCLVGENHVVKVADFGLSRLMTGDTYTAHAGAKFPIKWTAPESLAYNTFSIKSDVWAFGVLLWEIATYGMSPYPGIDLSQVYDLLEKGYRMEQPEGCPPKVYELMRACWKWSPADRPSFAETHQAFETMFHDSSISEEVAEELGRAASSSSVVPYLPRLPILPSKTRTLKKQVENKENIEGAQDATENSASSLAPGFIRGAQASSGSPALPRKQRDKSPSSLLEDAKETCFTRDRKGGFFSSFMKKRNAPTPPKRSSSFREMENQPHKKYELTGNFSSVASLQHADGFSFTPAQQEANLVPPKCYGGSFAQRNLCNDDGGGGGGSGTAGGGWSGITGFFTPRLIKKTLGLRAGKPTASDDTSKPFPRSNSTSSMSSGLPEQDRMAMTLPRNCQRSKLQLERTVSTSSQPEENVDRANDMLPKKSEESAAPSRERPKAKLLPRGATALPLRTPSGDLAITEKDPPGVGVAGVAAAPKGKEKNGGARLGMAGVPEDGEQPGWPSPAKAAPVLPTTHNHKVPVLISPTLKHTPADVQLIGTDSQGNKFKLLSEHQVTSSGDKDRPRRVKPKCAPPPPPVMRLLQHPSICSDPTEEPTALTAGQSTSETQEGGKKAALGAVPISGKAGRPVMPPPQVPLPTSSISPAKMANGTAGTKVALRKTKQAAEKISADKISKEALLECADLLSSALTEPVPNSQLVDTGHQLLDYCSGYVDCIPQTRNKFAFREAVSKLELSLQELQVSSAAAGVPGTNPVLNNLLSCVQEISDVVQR
T5 sequence (P46109 whole entry, the tested form may be a part): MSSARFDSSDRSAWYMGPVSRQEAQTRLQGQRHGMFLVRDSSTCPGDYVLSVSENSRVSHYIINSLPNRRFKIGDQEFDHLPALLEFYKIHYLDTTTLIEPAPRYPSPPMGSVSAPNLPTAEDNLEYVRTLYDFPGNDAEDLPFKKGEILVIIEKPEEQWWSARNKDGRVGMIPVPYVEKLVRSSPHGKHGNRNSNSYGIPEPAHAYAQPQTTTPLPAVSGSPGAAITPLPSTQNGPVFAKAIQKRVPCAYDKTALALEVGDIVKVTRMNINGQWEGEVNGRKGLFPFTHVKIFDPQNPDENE
T4 sequence (P29350 whole entry, the tested form may be a part): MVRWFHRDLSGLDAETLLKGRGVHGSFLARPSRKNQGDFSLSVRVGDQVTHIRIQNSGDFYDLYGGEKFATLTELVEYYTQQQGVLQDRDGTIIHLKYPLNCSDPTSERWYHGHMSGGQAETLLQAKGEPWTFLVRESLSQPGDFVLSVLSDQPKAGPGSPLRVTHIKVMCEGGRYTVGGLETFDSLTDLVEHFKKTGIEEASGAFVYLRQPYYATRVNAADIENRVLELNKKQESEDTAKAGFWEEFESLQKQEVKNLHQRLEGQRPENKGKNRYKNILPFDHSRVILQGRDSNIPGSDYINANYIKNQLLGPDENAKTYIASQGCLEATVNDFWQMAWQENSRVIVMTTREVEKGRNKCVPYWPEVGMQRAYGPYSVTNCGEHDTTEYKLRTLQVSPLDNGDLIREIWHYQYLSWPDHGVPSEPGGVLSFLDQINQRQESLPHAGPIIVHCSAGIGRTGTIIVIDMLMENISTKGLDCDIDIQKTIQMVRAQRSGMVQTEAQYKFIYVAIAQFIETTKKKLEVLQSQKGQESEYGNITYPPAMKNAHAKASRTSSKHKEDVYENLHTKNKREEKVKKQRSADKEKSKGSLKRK
T3 sequence (P27986 whole entry, the tested form may be a part): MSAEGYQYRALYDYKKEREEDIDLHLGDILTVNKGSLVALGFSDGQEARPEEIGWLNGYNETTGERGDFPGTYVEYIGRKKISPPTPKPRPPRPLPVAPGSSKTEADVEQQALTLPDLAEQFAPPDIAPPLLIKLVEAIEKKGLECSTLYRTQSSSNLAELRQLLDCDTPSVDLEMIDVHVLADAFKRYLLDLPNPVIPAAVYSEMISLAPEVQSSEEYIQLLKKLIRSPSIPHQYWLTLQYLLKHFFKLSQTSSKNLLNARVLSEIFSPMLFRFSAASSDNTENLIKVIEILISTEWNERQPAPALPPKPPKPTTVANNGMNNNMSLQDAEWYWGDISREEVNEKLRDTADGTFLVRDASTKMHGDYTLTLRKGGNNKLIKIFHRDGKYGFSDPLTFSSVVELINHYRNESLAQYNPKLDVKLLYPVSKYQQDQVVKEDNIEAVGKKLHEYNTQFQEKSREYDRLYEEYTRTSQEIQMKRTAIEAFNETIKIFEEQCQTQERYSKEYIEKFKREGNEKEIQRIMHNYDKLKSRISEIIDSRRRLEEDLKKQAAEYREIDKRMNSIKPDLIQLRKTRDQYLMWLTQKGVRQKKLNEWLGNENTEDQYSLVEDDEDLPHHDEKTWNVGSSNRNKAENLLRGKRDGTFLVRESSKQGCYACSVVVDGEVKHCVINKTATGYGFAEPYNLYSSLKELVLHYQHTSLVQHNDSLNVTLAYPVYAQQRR
T2 sequence (P00519 whole entry, the tested form may be a part): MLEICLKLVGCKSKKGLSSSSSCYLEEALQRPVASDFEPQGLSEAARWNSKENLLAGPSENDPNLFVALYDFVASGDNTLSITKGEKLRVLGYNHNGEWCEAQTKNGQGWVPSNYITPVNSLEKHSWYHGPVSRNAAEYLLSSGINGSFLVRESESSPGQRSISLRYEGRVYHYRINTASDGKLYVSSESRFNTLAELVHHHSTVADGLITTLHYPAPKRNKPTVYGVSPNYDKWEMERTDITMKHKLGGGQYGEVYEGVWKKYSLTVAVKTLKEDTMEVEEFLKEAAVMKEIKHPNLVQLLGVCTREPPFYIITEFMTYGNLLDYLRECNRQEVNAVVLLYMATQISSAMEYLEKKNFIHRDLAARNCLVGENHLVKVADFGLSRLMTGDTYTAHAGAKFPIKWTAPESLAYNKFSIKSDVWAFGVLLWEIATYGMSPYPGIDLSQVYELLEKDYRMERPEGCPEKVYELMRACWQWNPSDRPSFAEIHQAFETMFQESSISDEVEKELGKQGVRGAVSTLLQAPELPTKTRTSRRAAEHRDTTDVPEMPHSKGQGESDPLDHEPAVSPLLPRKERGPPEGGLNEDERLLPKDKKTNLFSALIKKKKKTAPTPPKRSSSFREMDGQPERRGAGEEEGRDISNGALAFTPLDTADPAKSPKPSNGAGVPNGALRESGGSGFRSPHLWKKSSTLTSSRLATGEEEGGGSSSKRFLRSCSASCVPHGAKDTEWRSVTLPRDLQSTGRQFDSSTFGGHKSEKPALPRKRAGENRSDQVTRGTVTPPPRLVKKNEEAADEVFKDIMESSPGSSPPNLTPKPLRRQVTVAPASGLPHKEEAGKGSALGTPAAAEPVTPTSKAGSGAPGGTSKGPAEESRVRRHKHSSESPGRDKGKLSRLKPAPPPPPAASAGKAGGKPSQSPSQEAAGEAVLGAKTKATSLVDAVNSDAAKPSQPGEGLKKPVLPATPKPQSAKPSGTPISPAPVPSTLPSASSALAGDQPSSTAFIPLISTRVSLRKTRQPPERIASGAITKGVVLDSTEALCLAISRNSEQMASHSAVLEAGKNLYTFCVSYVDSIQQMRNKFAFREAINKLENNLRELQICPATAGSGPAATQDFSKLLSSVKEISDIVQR
T8 sequence (Q7M4L6 whole entry, the tested form may be a part): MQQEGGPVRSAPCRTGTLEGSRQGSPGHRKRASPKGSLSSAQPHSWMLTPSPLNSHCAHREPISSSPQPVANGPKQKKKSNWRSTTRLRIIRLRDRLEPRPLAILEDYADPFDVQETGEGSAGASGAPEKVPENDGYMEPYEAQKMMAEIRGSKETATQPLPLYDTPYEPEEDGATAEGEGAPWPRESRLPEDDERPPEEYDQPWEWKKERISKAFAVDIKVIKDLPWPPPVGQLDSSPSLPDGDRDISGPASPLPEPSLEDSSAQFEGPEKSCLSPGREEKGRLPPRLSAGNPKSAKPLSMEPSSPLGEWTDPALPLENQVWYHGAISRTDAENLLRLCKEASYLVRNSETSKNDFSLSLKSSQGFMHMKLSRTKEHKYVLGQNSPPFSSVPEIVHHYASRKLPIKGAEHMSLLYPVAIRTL
T9 sequence (Q96JZ2 whole entry, the tested form may be a part): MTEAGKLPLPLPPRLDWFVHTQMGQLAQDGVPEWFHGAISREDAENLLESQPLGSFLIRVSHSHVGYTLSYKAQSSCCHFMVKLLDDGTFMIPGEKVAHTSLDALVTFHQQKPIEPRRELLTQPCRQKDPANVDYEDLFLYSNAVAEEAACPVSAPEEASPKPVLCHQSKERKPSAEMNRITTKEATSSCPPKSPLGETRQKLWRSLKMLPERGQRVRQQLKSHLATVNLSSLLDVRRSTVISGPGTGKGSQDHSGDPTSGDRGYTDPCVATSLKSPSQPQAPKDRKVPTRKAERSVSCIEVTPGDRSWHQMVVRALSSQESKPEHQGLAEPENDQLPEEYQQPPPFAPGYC

Consider `CC(C)C[C@H](NC(=O)[C@@H]1CCCN1)C(=O)N[C@@H](CCC(N)=O)C(=O)N[C@@H](CCCNC(=N)N)C(=O)N[C@@H](Cc1ccc(OP(=O)(O)O)cc1)C(=O)N[C@@H](CO)C(=O)N[C@@H](CCC(=O)O)C(=O)N[C@@H](CC(=O)O)C(=O)N1CCC[C@H]1C(=O)N[C@H](C(=O)N[C@H](C(=O)N1CCC[C@H]1C(=O)N[C@@H](CC(=O)O)C(=O)O)C(C)C)[C@@H](C)O` [ErbB2 pY1112] (HELM PEPTIDE1{P.L.Q.R.[O=C([C@H](Cc1ccc(OP(=O)(O)O)cc1)N[*:1])[*:2]].S.E.D.P.T.V.P.D}$$$$V2.0), for which the “Kd” value in [1] (PM assay replicate # 39331, array fabrication # 39329) was 26530 nM; in assay [1] (setting [10]), 5070 nM.

Take `CC(C)C[C@H](NC(=O)[C@@H]1CCCN1C(=O)[C@H](C)NC(=O)[C@@H](NC(=O)[C@H](Cc1ccc(OP(=O)(O)O)cc1)NC(=O)CNC(=O)[C@H](CC(=O)O)NC(=O)[C@@H](NC(=O)[C@@H](N)CCC(=O)O)[C@@H](C)O)C(C)C)C(=O)N[C@H](C(=O)N[C@@H](CS)C(=O)N[C@@H](CO)C(=O)N[C@@H](CC(=O)O)C(=O)O)[C@@H](C)O` [ErbB2 pY1127]: the “Kd” value was 300 nM in assay [2] (setting [10]); 530 nM in assay [2] (setting [11]); 19 nM in assay [3] (protein PIK3R1-N, PM assay replicate # 39336, array fabrication # 39329); 220 nM in assay [3] (protein PIK3R1-N, PM assay replicate # 39337, array fabrication # 39329); 1620 nM in assay [4] (protein PTPN6-NC, PM assay replicate # 39336, array fabrication # 39329); 1620 nM in [4] (protein PTPN6-NC, PM assay replicate # 39337, array fabrication # 39329). Also, the “Kd” value in assay [1] (setting [10]) was found to be 1600 nM; in assay [1] (setting [11]), 40 nM; in [1] (PM assay replicate # 39603, array fabrication # 39392), 250 nM; in assay [5] (setting [10]), 4800 nM; in [5] (setting [11]) it was 640 nM; in [6] (setting [10]) it was 1600 nM. Also, the equilibrium dissociation constant (Kd) in assay [6] (setting [11]) stood at 5390 nM.

In the case of `CCN(CC)c1ccc2c(-c3ccc(C(=O)N[C@@H](CC(N)=O)C(=O)NCC(=O)N4CCC[C@H]4C(=O)N4CCC[C@H]4C(=O)N[C@@H](CCCCN)C(=O)N[C@@H](C)C(=O)N[C@@H](CCC(=O)O)C(=O)N[C@@H](CC(=O)O)C(=O)N[C@@H](CCC(=O)O)C(=O)N[C@@H](Cc4ccc(OP(=O)(O)O)cc4)C(=O)N[C@H](C(=O)N[C@@H](CC(N)=O)C(=O)N[C@@H](CCC(=O)O)C(=O)N4CCC[C@H]4C(=O)N[C@@H](CC(C)C)C(=O)N[C@@H](Cc4ccc(O)cc4)C(=O)N[C@@H](CC(C)C)C(=O)N[C@@H](CC(=O)O)C(=O)O)C(C)C)cc3C(=O)[O-])c3ccc(=[N+](CC)CC)cc-3oc2c1` [ErbB4 1202 (18-mer)] (HELM PEPTIDE1{[CCN(CC)c1ccc2c(-c3ccc(C(=O)[*:2])cc3C(=O)[O-])c3ccc(=[N+](CC)CC)cc-3oc2c1].N.G.P.P.K.A.E.D.E.[O=C([C@H](Cc1ccc(OP(=O)(O)O)cc1)N[*:1])[*:2]].V.N.E.P.L.Y.L.D}$$$$V2.0), the “Kd” value worked out at 170 nM in assay [3] (protein PIK3R1-NC, PM assay replicate # 39307, array fabrication # 39286); 540 nM in [3] (protein PIK3R1-NC, PM assay replicate # 39337, array fabrication # 39329); 1000 nM in assay [7] (setting [12]); 970 nM in [7] (setting [11]); 11920 nM in [8] (setting [11]); 970 nM in assay [9].

`CC[C@H](C)[C@H](NC(=O)[C@H](CC(N)=O)NC(=O)[C@H](CC(N)=O)NC(=O)[C@H](CCCCN)NC(=O)[C@H](CC(C)C)NC(=O)[C@H](Cc1ccc(OP(=O)(O)O)cc1)NC(=O)[C@H](CCC(=O)O)NC(=O)[C@H](C)NC(=O)[C@H](CCCCN)NC(=O)CNC(=O)[C@H](CC(C)C)NC(=O)[C@@H](NC(=O)[C@H](CC(N)=O)NC(=O)[C@H](C)NC(=O)[C@@H](N)Cc1ccccc1)[C@@H](C)O)C(=O)N[C@@H](CC(C)C)C(=O)N[C@@H](CO)C(=O)N[C@@H](CC(=O)O)C(=O)O` [ErbB4 pY1221 (18-mer)] (HELM PEPTIDE1{F.A.N.T.L.G.K.A.E.[O=C([C@H](Cc1ccc(OP(=O)(O)O)cc1)N[*:1])[*:2]].L.K.N.N.I.L.S.D}$$$$V2.0): the “Kd” value in assay [2] (setting [12]) was found to be 250 nM; in [4] (protein PTPN6-C, PM assay replicate # 39307, array fabrication # 39286) it was 716010 nM; in assay [7] (setting [12]) it was 280 nM; in assay [7] (PM assay replicate # 39352, array fabrication # 39336), 910 nM; in assay [5] (setting [12]), 110 nM; in assay [6] (setting [12]) it was 420 nM. Besides, the “Kd” value amounted to 1190 nM in assay [8] (setting [12]) and 990 nM in assay [9].

For the origin of these results see paper PMC3433420 (PLoS ONE, 2012).
